Data published in US11530181B2, “IL-6 inhibitors and methods of treatment” (University of Florida Research Foundation, Incorporated, priority 2018, dated 2022).

Experiments:
[1] = molecular target: T1, gp130-D1-D3 (Homo sapiens, UniProt P40189); test: SPR direct binding to immobilized gp130-D1-D3 (CM5 chip); conditions: for Kd: SPR, gp130-D1-D3, linear regression at low concentrations, 25% Rmax; for ΔGexp: experimental binding energy from SPR KD
T1 construct: residues 1-301, the numbering system is based on PDB 3L5H, which is the mature form of gp130; tandem TFH purification tag (includes FLAG, as purified on anti-FLAG M2 agarose) (C); made in house; host or cells: Hi5 insect cells (baculovirus; virus generated in sf9)
T1 sequence (P40189 23-323): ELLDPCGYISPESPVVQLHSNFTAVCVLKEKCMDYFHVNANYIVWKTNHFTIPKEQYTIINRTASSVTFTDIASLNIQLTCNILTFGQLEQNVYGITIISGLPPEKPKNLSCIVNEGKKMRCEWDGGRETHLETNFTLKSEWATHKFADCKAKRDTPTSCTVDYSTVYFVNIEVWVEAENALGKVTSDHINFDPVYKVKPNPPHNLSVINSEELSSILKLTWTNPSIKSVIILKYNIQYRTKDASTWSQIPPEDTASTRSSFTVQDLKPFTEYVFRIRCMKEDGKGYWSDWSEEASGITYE

[2] = system: tert-immortalized human mammaryepithelial cells (HMEC-tert); test: Cell viability of normal cells HMEC-tert vs SUM159; format: cell-based; conditions: 0.25-10 μM, 48 hours
Description: Cell viability was evaluated by using the MTT assay in triple replicates in one experiment and repeated for three times. Cancer cells were seeded in 96-well plates at a density of 3,000 cells per well. The cells were incubated at 37° C. for a period of 24 hours. Escalating concentrations of IL-6/gp130 inhibitors were added in triplicate to the plates in the presence of 10% FBS. After incubation for 48 or 72 hours, a stock solution of MTT (0.5 mg/ml) was then added to each well containing the treated cells, followed by incubation at 37° C. for 3 h. After removal of medium, the MTT dye was dissolved with spectrophotometric grade DMSO and the absorbance was read at 570 nm. The IC50 value is determined by interpolation based on the absorbance value halfway between positive and negative controls. In the experiment of LLM4 showing higher efficacy in cancer cells with higher levels of IL-6, instead of using medium with 10% FBS, DMEM with 0% FBS was used in order to eliminate the influence of trace amounts of growth factors and cytokines in FBS.
To examine whether the novel compounds show cytotoxicity to normal cells, cell viability was also measured when the normal cell line tert-immortalized human mammaryepithelial cells (HMEC-tert) [Yang H, Pinello C E, Luo J, et al. Small-molecule inhibitors of acetyltransferase p300 identified by high-throughput screening are potent anticancer agents. […]

[3] = system: LIF induced STAT3 phosphorylation; test: Western blot, LIF induced STAT3 phosphorylation in MCF7; format: cell-based, human
Description: (§1) Cells were harvested and lysed in cold radioimmunoprecipitation assay (RIPA) lysis buffer containing proteasome inhibitor cocktail and phosphatase inhibitor cocktail. The protein concentrations were determined using the BCA Protein Assay kit. After adding the loading buffer and boiling at 95° C. for 10 minutes, equivalent amounts of proteins were loaded on and separated by SDS-PAGE, and then were transferred to PVDF membranes. Membranes were probed with primary antibodies (1:1000) against phospho-STAT3 (Tyr705), STAT3, phospho-STAT1 (Tyr701), STAT1, phospho-STAT6 (Tyr 641), STAT6, and GAPDH, respectively, and horseradish peroxidase (HRP)-conjugated secondary antibody (1:10000) (Cell Signaling Technology, Beverly, Mass.). Membranes were analyzed using Enhanced Chemiluminescence Plus reagents and either scanned with the Storm Scanner (Amersham Pharmacia Biotech, Inc., Piscataway, N.J.) or imaged with ChemiDoc MP imaging system (Bio-Rad, Hercules, Calif.). […] The cells were harvested after 30 minutes and analyzed by Western blot.
(§2) MCF7 breast cancer cells were seeded in 10 cm plates (1 million cells per plate) and allowed to adhere overnight. […] The cells were harvested after 30 minutes and analyzed by western blotting.

[4] = system: OSM induced STAT3 phosphorylation; test: Western blot, OSM induced STAT3 phosphorylation in MCF7; format: cell-based, human
Description: as §1, §2

[5] = system: IL-4 induced STAT6 phosphorylation; test: Western blot, IL-4 induced STAT6 phosphorylation in MCF7; format: cell-based, human; conditions: MCF7, pre-treatment 2, 3 and 4 hours
Description: as §1, §2

[6] = system: INF-γ induced STAT1 phosphorylation; test: Western blot, INF-γ induced STAT1 phosphorylation in MCF7; format: cell-based, human; conditions: MCF7, pre-treatment 2, 3 and 4 hours
Description: as §1, §2

O=C(Nc1cccc(OCCN2CCCCC2)c1)Nc1cccc(-c2ccn[nH]2)c1 [LLM414, 1-(3-(1H-pyrazol-5-yl)phenyl)-3-(3-(2-(piperidin-1-yl)ethoxy)phenyl)urea]
Kd [1]: 15.6 µM
ΔGexp [1]: -6.55 kcal/mol
differential cytotoxic effects to HMEC-tert and SUM159 cells [2]: selectively kill cancer cells

O=C(Nc1ccccc1-c1ccn[nH]1)c1ccc(OCCN2CCCCC2)cc1 [LLM418, N-(2-(1H-pyrazol-5-yl)phenyl)-4-(2-(piperidin-1-yl)ethoxy)benzamide]
inhibition of LIF induced STAT3 phosphorylation ([3]; MCF7, 4 μM): very little inhibitory effect
inhibition of OSM induced STAT3 phosphorylation ([4]; MCF7, 4 μM): very little inhibitory effect
Kd [1]: 20.5 µM
ΔGexp [1]: -6.39 kcal/mol
differential cytotoxic effects to HMEC-tert and SUM159 cells [2]: selectively kill cancer cells
effect on STAT6 phosphorylation [5]: little effect
effect on STAT1 phosphorylation [6]: little effect

O=C(Nc1cc(F)ccc1-n1cccc1)c1ccc(OCCCN2CCCCC2)cc1 [LLM4, N-(5-fluoro-2-(1H-pyrrol-1-yl)phenyl)-4-(3-(piperidin-1-yl)propoxy)benzamide]
LIF induced STAT3 phosphorylation ([3]; MCF7, 15 μM, 2, 3 and 4 hours): remain intact
OSM induced STAT3 phosphorylation ([4]; MCF7, 15 μM, 2, 3 and 4 hours): remain intact
effect on IL-4 induced STAT6 phosphorylation ([5]; 15 μM): no effect
effect on INF-γ induced STAT1 phosphorylation ([6]; 15 μM): no effect
